Test results from patent publication US11214803B2, “Modulators of YAP1 expression” (Ionis Pharmaceuticals, Inc., priority 2019, dated 2022).
Strand notation (5' to 3'): a small letter for the sugar, then the base; units joined by * are phosphorothioate-linked, units joined directly phosphodiester-linked; [ ] holds rarer units or linkages, { } end groups; capitals alone tell only the bases. k = constrained ethyl (cEt); [5mC] = 5-methylcytosine; d = 2'-deoxy (DNA)

System: Yap1 mRNA
Assay: Antisense inhibition of human Yap1 in A-431 cells by cEt gapmers, single dose (Example 3, RTS36584)
Type: cell-based
Conditions: Table 9; A-431 cells, 5,000 cells per well, free uptake, 2,000 nM, approximately 48 hours; RTS36584; normalized to RIBOGREEN; Yap1 mRNA relative to untreated control cells
In short: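 Values are % untreated control: Yap1 mRNA by quantitative RT-PCR (RTS36584), normalized to total RNA by RiboGreen. Before RNA isolation, 5,000 A-431 cells per well were exposed ~48 h to 2,000 nM 16-mer cEt gapmer, delivered without transfection reagent.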

Substance	YAP1 (% UTC)
958611 (antisense kG*kA*kG*d[5mC]*dA*dT*dG*d[5mC]*dT*d[5mC]*dT*dT*dA*k[5mC]*kA*kT) [Compound 958611]	92 % UTC
958616 (antisense kG*kG*kT*dG*dG*dT*d[5mC]*dT*dT*dG*dT*dT*d[5mC]*kT*kT*kA) [Compound 958616]	10 % UTC
958621 (antisense kA*kA*k[5mC]*dG*dA*dG*dG*dG*dT*d[5mC]*dA*dA*dG*k[5mC]*k[5mC]*kT) [Compound 958621]	29 % UTC
958626 (antisense kT*kG*kG*dG*d[5mC]*dA*dA*dA*dG*dT*dT*d[5mC]*d[5mC]*kT*kA*kT) [Compound 958626]	158 % UTC
958631 (antisense kT*kG*k[5mC]*dA*dA*dA*dT*dA*dG*dG*dA*dG*dA*kG*kG*kG) [Compound 958631]	122 % UTC
958636 (antisense k[5mC]*k[5mC]*kG*d[5mC]*dA*d[5mC]*d[5mC]*dG*d[5mC]*dG*dG*d[5mC]*d[5mC]*k[5mC]*kG*kG) [Compound 958636]	126 % UTC
958641 (antisense kA*kG*k[5mC]*dT*dA*d[5mC]*dA*dG*dA*dG*d[5mC]*dT*dT*kA*kA*k[5mC]) [Compound 958641]	102 % UTC
958646 (kT*kA*kT*dT*dA*dT*dA*dT*dG*dG*d[5mC]*dT*dA*kA*kG*k[5mC]; antisense) [Compound 958646]	26 % UTC
958651 (kA*kA*k[5mC]*dT*dA*dA*dA*dG*dA*dG*dG*dA*d[5mC]*kT*kT*kA; antisense) [Compound 958651]	62 % UTC

Same assay, conditions: Table 10; A-431 cells, 5,000 cells per well, free uptake, 2,000 nM oligonucleotide, approx. 48 hours; primer probe set RTS36584; Yap1 mRNA normalized to RIBOGREEN, percent of untreated control

Substance	YAP1 (% UTC)
958612 (antisense kA*k[5mC]*k[5mC]*dT*dA*dA*d[5mC]*dA*dT*dA*dT*dG*dA*kG*k[5mC]*kA) [Compound 958612]	18 % UTC
958617 (antisense kG*kA*kG*dG*dT*dG*dG*dT*d[5mC]*dT*dT*dG*dT*kT*k[5mC]*kT) [Compound 958617]	40 % UTC
958622 (antisense kG*kA*kT*dA*dT*dT*d[5mC]*d[5mC]*dG*d[5mC]*dA*dT*dT*kG*k[5mC]*k[5mC]) [Compound 958622]	3 % UTC
958627 (antisense kT*kT*kG*dG*dG*d[5mC]*dA*dA*dA*dG*dT*dT*d[5mC]*k[5mC]*kT*kA) [Compound 958627]	61 % UTC
958632 (antisense k[5mC]*kT*k[5mC]*d[5mC]*dG*dA*d[5mC]*dA*dG*dG*dA*dG*dA*k[5mC]*kT*kA) [Compound 958632]	55 % UTC
958637 (antisense k[5mC]*k[5mC]*kG*d[5mC]*dA*dG*dA*dG*dA*dG*dA*dA*dA*k[5mC]*kT*k[5mC]) [Compound 958637]	101 % UTC
958642 (antisense kG*kA*k[5mC]*dA*dT*d[5mC]*dA*dA*dT*dT*dT*d[5mC]*dA*kG*kT*k[5mC]) [Compound 958642]	91 % UTC
958647 (kT*kA*kG*dG*dA*dA*dG*dT*dT*dG*dT*dT*dG*kA*k[5mC]*k[5mC]; antisense) [Compound 958647]	11 % UTC
958652 (kG*k[5mC]*kT*dA*d[5mC]*dG*dA*d[5mC]*dG*dG*d[5mC]*dT*dG*kG*k[5mC]*k[5mC]; antisense) [Compound 958652]	136 % UTC

Same assay, conditions: Table 11; A-431 cells, 5,000 cells per well, free uptake, 2,000 nM oligonucleotide, approx. 48 hours; primer probe set RTS36584; Yap1 mRNA normalized to RIBOGREEN, percent of untreated control

Substance	YAP1 (% UTC)
958608 (antisense kT*kG*kA*dT*dA*dG*dG*d[5mC]*dA*d[5mC]*dA*d[5mC]*d[5mC]*k[5mC]*kA*k[5mC]) [Compound 958608]	11 % UTC
958613 (antisense k[5mC]*k[5mC]*kT*dG*dA*dA*dG*d[5mC]*d[5mC]*dG*dA*dG*dT*kT*k[5mC]*kA) [Compound 958613]	15 % UTC
958618 (antisense kA*kG*k[5mC]*d[5mC]*dA*dA*dG*dA*dG*dG*dT*dG*dG*kT*k[5mC]*kT) [Compound 958618]	36 % UTC
958623 (antisense kT*kT*kG*dA*dT*dA*dT*dT*d[5mC]*d[5mC]*dG*d[5mC]*dA*kT*kT*kG) [Compound 958623]	3 % UTC
958628 (antisense kG*k[5mC]*kT*dA*dA*d[5mC]*dT*dA*d[5mC]*dA*dT*dT*dG*k[5mC]*kA*kG) [Compound 958628]	81 % UTC
958633 (antisense kT*kG*kT*d[5mC]*dA*dT*d[5mC]*dA*dG*dG*dT*dT*dA*kA*kG*kT) [Compound 958633]	76 % UTC
958638 (antisense kG*kT*kG*d[5mC]*dG*dG*dA*dG*d[5mC]*dG*d[5mC]*dG*d[5mC]*kG*kG*kA) [Compound 958638]	127 % UTC
958643 (antisense kT*kA*kG*d[5mC]*dA*dA*d[5mC]*d[5mC]*d[5mC]*dA*d[5mC]*d[5mC]*d[5mC]*kT*kG*kG) [Compound 958643]	59 % UTC
958648 (kG*kA*kA*dT*dA*d[5mC]*dT*dG*dA*dG*dT*d[5mC]*dA*kG*kG*kA; antisense) [Compound 958648]	7 % UTC
958653 (kT*kT*kA*d[5mC]*dA*d[5mC]*dA*d[5mC]*dA*dG*dG*d[5mC]*dT*kA*kT*kG; antisense) [Compound 958653]	17 % UTC

Same assay, conditions: Table 12; A-431 cells, 5,000 cells per well, free uptake, 2,000 nM modified oligonucleotide, approx. 48 hours; RTS36584; normalized to RIBOGREEN; Yap1 mRNA relative to untreated control cells

Substance	YAP1 (% UTC)
958609 (antisense kT*kG*kA*d[5mC]*dA*dA*dG*dT*dG*dT*dG*d[5mC]*dA*kT*kT*kA) [Compound 958609]	16 % UTC
958614 (antisense kG*kT*k[5mC]*dT*dT*dG*dT*dT*d[5mC]*dT*dT*dA*dT*kG*kG*kT) [Compound 958614]	6 % UTC
958619 (antisense kT*kG*kG*dG*dT*d[5mC]*dT*dA*dG*d[5mC]*d[5mC]*dA*dA*kG*kA*kG) [Compound 958619]	71 % UTC
958624 (antisense kG*kG*kG*dA*dT*dT*dG*dA*dT*dA*dT*dT*d[5mC]*k[5mC]*kG*k[5mC]) [Compound 958624]	74 % UTC
958629 (antisense k[5mC]*k[5mC]*k[5mC]*dG*dA*dG*dT*dG*dG*dG*d[5mC]*dT*dA*kA*k[5mC]*kT) [Compound 958629]	128 % UTC
958634 (antisense kT*k[5mC]*k[5mC]*dT*dT*dA*dA*d[5mC]*d[5mC]*d[5mC]*dG*dG*dG*kT*kT*kT) [Compound 958634]	61 % UTC
958639 (antisense kG*kT*kT*dA*dT*dG*dG*dG*dT*dG*d[5mC]*dT*dT*kT*kT*k[5mC]) [Compound 958639]	18 % UTC
958644 (antisense kA*kT*kG*dA*dT*d[5mC]*dA*dA*dA*d[5mC]*d[5mC]*dT*dT*kT*kT*k[5mC]) [Compound 958644]	5 % UTC
958649 (kT*kG*k[5mC]*d[5mC]*dA*d[5mC]*dT*dG*dG*dT*dG*dA*dA*kT*kA*k[5mC]; antisense) [Compound 958649]	36 % UTC
958654 (kA*kA*kT*dG*dG*dA*dG*dT*dG*dG*d[5mC]*d[5mC]*dG*kG*kG*k[5mC]; antisense) [Compound 958654]	110 % UTC

Same assay, conditions: Table 13; A-431 cells, 5,000 cells per well, free uptake, 2,000 nM modified oligonucleotide, approx. 48 hours; RTS36584; normalized to RIBOGREEN; Yap1 mRNA relative to untreated control cells

Substance	YAP1 (% UTC)
958610 (antisense kA*kG*kG*dT*dA*dA*d[5mC]*dA*dT*dT*dG*dG*dT*kA*k[5mC]*kT) [Compound 958610]	34 % UTC
958615 (antisense kT*kG*kG*dT*d[5mC]*dT*dT*dG*dT*dT*d[5mC]*dT*dT*kA*kT*kG) [Compound 958615]	3 % UTC
958620 (antisense kA*kA*kG*d[5mC]*d[5mC]*dT*dT*dG*dG*dG*dT*d[5mC]*dT*kA*kG*k[5mC]) [Compound 958620]	57 % UTC
958625 (antisense kT*kG*k[5mC]*dT*dG*dG*dG*dA*dT*dT*dG*dA*dT*kA*kT*kT) [Compound 958625]	6 % UTC
958630 (antisense kG*k[5mC]*kG*dG*dT*dA*dA*d[5mC]*dT*d[5mC]*dT*dT*d[5mC]*kT*kT*kT) [Compound 958630]	52 % UTC
958635 (antisense kG*kT*kT*dT*dA*dG*dG*d[5mC]*dA*dA*dG*d[5mC]*dA*kG*k[5mC]*kT) [Compound 958635]	43 % UTC
958640 (antisense kT*kA*kG*dA*dT*dA*dA*d[5mC]*dT*dG*dT*d[5mC]*dT*k[5mC]*k[5mC]*k[5mC]) [Compound 958640]	13 % UTC
958645 (kG*k[5mC]*k[5mC]*d[5mC]*dA*dT*dA*dG*dT*dT*dG*dA*d[5mC]*kA*kG*kG; antisense) [Compound 958645]	54 % UTC
958650 (kT*k[5mC]*kA*dA*dT*dT*dG*dA*dG*dT*d[5mC]*dT*dG*k[5mC]*kT*kA; antisense) [Compound 958650]	3 % UTC
